Measured values from patent US12559492B2, “BRAF degraders” (C4 Therapeutics, Inc., priority 2020, dated 2026).

Target: BRAF^V600E protein (Homo sapiens, UniProt P15056, V600E)
Assay: HiBiT cellular BRAF V600E degradation assay
Format: cell-based
Details: 24 h incubation; for DC50: A375.10 cells (HiBiT tag knocked in at N-terminal of BRAF V600E), concentration at which 50% of total cellular BRAF V600E is degraded; for Emax: A375.10 cells, Emax = amount of residual protein remaining in the cell after compound treatment, read-out: HiBit 24 h Emax

BRAF^V600E protein, sequence (P15056 whole entry V600E): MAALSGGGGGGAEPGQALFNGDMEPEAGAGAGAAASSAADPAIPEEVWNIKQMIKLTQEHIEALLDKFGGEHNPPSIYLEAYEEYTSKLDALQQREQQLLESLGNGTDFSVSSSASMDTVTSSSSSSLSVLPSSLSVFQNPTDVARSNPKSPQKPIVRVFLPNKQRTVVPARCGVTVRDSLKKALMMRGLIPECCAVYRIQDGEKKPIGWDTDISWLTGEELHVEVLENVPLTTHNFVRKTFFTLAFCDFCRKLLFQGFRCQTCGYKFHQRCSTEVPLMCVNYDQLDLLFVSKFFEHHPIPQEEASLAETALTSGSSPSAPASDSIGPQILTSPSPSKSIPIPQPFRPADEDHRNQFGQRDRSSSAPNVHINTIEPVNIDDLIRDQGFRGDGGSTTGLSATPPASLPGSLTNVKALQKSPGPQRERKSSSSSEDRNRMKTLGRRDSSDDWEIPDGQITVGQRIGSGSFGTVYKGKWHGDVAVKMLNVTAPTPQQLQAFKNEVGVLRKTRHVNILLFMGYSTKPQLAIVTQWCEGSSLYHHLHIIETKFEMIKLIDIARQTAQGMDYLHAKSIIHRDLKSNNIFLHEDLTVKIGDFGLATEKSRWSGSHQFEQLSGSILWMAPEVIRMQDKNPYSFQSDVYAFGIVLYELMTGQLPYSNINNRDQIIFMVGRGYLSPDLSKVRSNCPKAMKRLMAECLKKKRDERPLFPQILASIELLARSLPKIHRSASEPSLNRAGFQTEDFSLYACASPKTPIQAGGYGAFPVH

Row | DC50 | Emax | Compound
1 | 0.0182 µM | 12% | CCN(C)S(=O)(=O)Nc1ccc(F)c(C(=O)c2c[nH]c3ncc(-c4cnc(N5CC6(CC(C(=O)N7CCC(c8ccc(NC9CCC(=O)NC9=O)cc8)CC7)C6)C5)nc4)cc23)c1F (centres unmarked) [Example 132, 5-[2-[6-[4-[4-[(2,6-dioxo-3-piperidyl)amino]phenyl]piperidine-1-carbonyl]-2-azaspiro[3.3]heptan-2-yl]pyrimidin-5-yl]-3-[3-[[ethyl(methyl)sulfamoyl]amino]-2,6-difluoro-benzoyl]-1H-pyrrolo[2,3-b]pyridine]
2 | 0.0147 µM | 11.4% | CCN(C)S(=O)(=O)Nc1ccc(F)c(C(=O)c2c[nH]c3ncc(-c4cnc(N5CC6(CC(CC(=O)N7CCC(c8ccc(NC9CCC(=O)NC9=O)cc8)CC7)C6)C5)nc4)cc23)c1F (centres unmarked) [Example 133, 5-[2-[6-[2-[4-[4-[(2,6-dioxo-3-piperidyl)amino]phenyl]-1-piperidyl]-2-oxo-ethyl]-2-azaspiro[3.3]heptan-2-yl]pyrimidin-5-yl]-3-[3-[[ethyl(methyl)sulfamoyl]amino]-2,6-difluoro-benzoyl]-1H-pyrrolo[2,3-b]pyridine]
3 | 0.0189 µM | 11% | CCN(C)S(=O)(=O)Nc1ccc(F)c(C(=O)c2c[nH]c3ncc(-c4cnc(N5CCC(CC(=O)NC6CCN(c7ccc(NC8CCC(=O)NC8=O)cc7F)CC6)CC5)nc4)cc23)c1F (centres unmarked) [Example 134, N-[1-[4-[(2,6-dioxo-3-piperidyl)amino]-2-fluoro-phenyl]-4-piperidyl]-2-[1-[5-[3-[3-[[ethyl(methyl)sulfamoyl]amino]-2,6-difluoro-benzoyl]-1H-pyrrolo[2,3-b]pyridin-5-yl]pyrimidin-2-yl]-4-piperidyl]acetamide]
4 | 0.0105 µM | 7.71% | CCN(C)S(=O)(=O)Nc1ccc(F)c(C(=O)c2c[nH]c3ncc(-c4cnc(N5CCN(C(=O)NC6CCN(c7ccc(NC8CCC(=O)NC8=O)cc7F)CC6)CC5)nc4)cc23)c1F (centres unmarked) [Example 138, N-[1-[4-[(2,6-dioxo-3-piperidyl)amino]-2-fluoro-phenyl]-4-piperidyl]-4-[5-[3-[3-[[ethyl(methyl)sulfamoyl]amino]-2,6-difluoro-benzoyl]-1H-pyrrolo[2,3-b]pyridin-5-yl]pyrimidin-2-yl]piperazine-1-carboxamide]
5 | 0.0152 µM | 8.77% | CCN(C)S(=O)(=O)Nc1ccc(F)c(C(=O)c2c[nH]c3ncc(-c4ccc(N5CCN(C(=O)NC6CCN(c7ccc(NC8CCC(=O)NC8=O)cc7F)CC6)CC5)nc4)cc23)c1F (centres unmarked) [Example 140, N-[1-[4-[(2,6-dioxo-3-piperidyl)amino]-2-fluoro-phenyl]-4-piperidyl]-4-[5-[3-[3-[[ethyl(methyl)sulfamoyl]amino]-2,6-difluoro-benzoyl]-1H-pyrrolo[2,3-b]pyridin-5-yl]-2-pyridyl]piperazine-1-carboxamide]

Row | Compound | DC50 | Emax
6 | CCN(C)S(=O)(=O)Nc1ccc(F)c(C(=O)c2c[nH]c3ncc(-c4cnc(N5CCC(NC(=O)C6CCN(c7ccc(NC8CCC(=O)NC8=O)cc7F)CC6)CC5)nc4)cc23)c1F (centres unmarked) [Example 136, 1-[4-[(2,6-dioxo-3-piperidyl)amino]-2-fluoro-phenyl]-N-[1-[5-[3-[3-[[ethyl(methyl)sulfamoyl]amino]-2,6-difluoro-benzoyl]-1H-pyrrolo[2,3-b]pyridin-5-yl]pyrimidin-2-yl]-4-piperidyl]piperidine-4-carboxamide] | 0.00326 µM | 7.37%
7 | CCN(C)S(=O)(=O)Nc1cccc(C(=O)c2c[nH]c3ncc(-c4cnc(N5CCN(C(=O)NC6CCN(c7ccc(NC8CCC(=O)NC8=O)cc7F)CC6)CC5)nc4)cc23)c1F (centres unmarked) [Example 141, N-[1-[4-[(2,6-dioxo-3-piperidyl)amino]-2-fluoro-phenyl]-4-piperidyl]-4-[5-[3-[3-[[ethyl(methyl)sulfamoyl]amino]-2-fluoro-benzoyl]-1H-pyrrolo[2,3-b]pyridin-5-yl]pyrimidin-2-yl]piperazine-1-carboxamide] | 0.00284 µM | 7.91%
